Test results reported in PMC6199744, “Development of Chemical Proteomics for the Folateome and Analysis of the Kinetoplastid Folateome” (ACS Infectious Diseases, 2018).
Like-named read-outs stand apart in the source and are kept apart here.

What was measured:
Assay type in all cases: binding
[1] = target: T1, HeLa cell extract proteins (Homo sapiens, UniProt P14174)
T1 construct: endogenous in cells; host or cells: HeLa cell extract
T1 sequence (P14174 1-115): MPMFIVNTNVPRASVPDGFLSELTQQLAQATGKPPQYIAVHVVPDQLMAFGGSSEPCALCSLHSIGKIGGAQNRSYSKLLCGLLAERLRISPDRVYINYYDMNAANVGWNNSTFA

[2] = target: T2, HeLa cell extract proteins (Homo sapiens, UniProt P20671)
T2 construct: endogenous in cells; host or cells: HeLa cell extract

[3] = target: T3, HeLa cell extract proteins (Homo sapiens, UniProt Q9UIA9); settings: HeLa; protein XPO7
T3 construct: endogenous in cells; host or cells: HeLa cell extract
T3 sequence (Q9UIA9 1-1087): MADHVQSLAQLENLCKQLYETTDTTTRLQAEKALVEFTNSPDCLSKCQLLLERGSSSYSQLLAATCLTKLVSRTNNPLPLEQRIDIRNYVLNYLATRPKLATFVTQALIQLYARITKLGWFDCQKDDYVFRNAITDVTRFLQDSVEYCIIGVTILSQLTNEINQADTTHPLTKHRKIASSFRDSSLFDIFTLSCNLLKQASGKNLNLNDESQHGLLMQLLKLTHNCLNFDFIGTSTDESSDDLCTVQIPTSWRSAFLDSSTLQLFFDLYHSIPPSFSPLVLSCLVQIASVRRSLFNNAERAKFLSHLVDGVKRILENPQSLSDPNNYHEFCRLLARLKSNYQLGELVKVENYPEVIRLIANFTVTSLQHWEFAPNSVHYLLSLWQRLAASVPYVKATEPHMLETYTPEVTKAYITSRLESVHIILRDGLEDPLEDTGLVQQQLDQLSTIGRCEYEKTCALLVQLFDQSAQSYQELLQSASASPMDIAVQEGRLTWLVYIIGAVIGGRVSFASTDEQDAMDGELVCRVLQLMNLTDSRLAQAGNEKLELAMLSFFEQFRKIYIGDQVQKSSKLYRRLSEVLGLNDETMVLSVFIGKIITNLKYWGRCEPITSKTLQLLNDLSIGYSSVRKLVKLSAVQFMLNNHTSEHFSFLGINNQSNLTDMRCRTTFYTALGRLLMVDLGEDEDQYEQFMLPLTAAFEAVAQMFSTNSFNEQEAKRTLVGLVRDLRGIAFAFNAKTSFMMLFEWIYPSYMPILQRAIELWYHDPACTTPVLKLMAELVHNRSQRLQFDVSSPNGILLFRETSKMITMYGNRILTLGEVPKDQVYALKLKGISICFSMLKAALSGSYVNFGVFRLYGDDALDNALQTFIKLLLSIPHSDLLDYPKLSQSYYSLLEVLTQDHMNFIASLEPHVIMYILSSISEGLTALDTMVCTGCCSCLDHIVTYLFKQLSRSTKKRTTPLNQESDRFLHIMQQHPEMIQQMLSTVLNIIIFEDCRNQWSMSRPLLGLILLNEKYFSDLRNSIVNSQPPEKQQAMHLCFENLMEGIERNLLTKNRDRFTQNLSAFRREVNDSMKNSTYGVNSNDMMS

[4] = target: T4, HeLa cell extract proteins (Homo sapiens, UniProt Q9BSJ2); settings: captured protein TUBGCP2; HeLa
T4 construct: endogenous in cells; host or cells: HeLa cell extract

[5] = target: T5, HeLa cell extract proteins (Homo sapiens, UniProt O15111); settings: HeLa; protein CHUK
T5 construct: endogenous in cells; host or cells: HeLa cell extract
T5 sequence (O15111 1-745): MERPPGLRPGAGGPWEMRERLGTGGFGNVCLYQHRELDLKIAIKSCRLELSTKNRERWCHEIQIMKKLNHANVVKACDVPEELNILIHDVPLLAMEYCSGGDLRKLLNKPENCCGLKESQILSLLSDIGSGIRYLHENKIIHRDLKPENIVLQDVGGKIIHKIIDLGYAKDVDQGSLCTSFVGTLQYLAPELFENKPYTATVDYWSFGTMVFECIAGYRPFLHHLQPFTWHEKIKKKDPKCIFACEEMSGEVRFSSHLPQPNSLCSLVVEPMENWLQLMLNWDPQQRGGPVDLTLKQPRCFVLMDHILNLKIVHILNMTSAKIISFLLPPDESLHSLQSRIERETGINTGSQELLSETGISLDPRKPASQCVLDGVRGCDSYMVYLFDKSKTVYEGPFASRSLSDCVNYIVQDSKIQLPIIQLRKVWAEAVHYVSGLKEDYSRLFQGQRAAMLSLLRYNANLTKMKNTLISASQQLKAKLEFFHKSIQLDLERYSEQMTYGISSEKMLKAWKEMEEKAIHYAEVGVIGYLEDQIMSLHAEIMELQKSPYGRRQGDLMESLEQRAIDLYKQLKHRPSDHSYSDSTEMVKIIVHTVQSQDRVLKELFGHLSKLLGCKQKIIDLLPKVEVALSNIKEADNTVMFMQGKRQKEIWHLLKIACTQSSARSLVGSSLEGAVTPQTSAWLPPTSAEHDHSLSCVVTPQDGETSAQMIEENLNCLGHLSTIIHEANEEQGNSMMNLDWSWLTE

[6] = HeLa, protein LOC284889 (MACROPHAGE MIGRATION INHIBITORY FACTOR)

T4 sequence (Q9BSJ2 whole entry): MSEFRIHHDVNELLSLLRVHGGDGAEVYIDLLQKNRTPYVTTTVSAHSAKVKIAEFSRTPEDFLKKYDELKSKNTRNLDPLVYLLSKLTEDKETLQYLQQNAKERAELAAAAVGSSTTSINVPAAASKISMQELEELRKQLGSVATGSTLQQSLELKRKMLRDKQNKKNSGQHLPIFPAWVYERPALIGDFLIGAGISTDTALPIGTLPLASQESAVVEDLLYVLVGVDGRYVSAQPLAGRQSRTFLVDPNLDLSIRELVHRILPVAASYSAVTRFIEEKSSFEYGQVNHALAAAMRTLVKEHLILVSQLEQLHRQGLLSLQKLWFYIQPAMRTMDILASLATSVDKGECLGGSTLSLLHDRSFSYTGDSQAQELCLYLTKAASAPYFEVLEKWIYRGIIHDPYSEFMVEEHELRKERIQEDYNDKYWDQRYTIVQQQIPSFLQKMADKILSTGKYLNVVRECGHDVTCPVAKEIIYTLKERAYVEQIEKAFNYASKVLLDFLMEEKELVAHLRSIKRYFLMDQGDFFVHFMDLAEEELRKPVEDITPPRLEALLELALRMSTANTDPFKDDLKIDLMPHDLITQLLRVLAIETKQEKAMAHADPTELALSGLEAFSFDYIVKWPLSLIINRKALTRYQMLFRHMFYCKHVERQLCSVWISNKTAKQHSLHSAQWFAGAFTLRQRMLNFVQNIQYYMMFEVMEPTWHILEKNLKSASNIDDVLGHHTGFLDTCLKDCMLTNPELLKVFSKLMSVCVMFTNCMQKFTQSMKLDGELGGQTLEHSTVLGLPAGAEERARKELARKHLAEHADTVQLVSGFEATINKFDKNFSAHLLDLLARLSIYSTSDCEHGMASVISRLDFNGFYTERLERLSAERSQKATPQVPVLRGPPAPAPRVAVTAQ

SMILES | fold changes relative to vehicle control [1, 6] | fold changes relative to vehicle control ([2]; HeLa, protein HIST1H2AD) | fold changes relative to vehicle control [3] | fold changes relative to vehicle control [4] | fold changes relative to vehicle control [5] | also measured
Nc1nc2c(c(=O)[nH]1)N(C=O)C(CNc1ccc(C(=O)N[C@@H](CCC(=O)O)C(=O)O)cc1)CN2 (some centres unmarked) [LEU, leucovorin] | 1.32 | 0.96 |  |  |  | 
Nc1nc2[nH]cc(CCc3ccc(C(=O)N[C@@H](CCC(=O)O)C(=O)O)cc3)c2c(=O)[nH]1 [PTX, pemetrexed] |  |  |  |  |  | fold changes relative to vehicle control [1]: 1.29; fold changes relative to vehicle control [2]: 1.03
CCCCCCOc1ccc(Cc2cnc(N)nc2N)cc1 [compound 1] |  |  | 0.88 | 0.76 | 0.98 | 
CCCCCCOc1cccc(Cc2cnc(N)nc2N)c1 [compound 2] |  |  | 1.28 | 1.01 | 1.04 | 
Nc1nc2cccc(-c3ccccc3)c2n1Cc1ccc(Cl)c(Cl)c1 [compound 3] |  |  | 0.98 | 0.99 | 0.9 | 
NCCOCCOCC(=O)Nc1nc2ncc(CNc3ccc(C(=O)NC(CCC(=O)O)C(=O)O)cc3)nc2c(=O)[nH]1 (centres unmarked) [compound 6] | 1.26 | 1.18 |  |  |  | 
NCCCNc1ccc(C(=O)NC(CCC(=O)O)C(=O)O)cc1 (centres unmarked) [compound 7] | 1.25 | 0.97 |  |  |  | 
